# Columns and labels:
# [1] = Inhibition of collagen prolyl 4-hydroxylase (unknown origin); design: species or system Homo sapiens
# [2] = Inhibition of chicken collagen prolyl 4-hydroxylase; design: species or system Gallus gallus
# [3] = Inhibition of collagen prolyl 4-hydroxylase (unknown origin) using 2-ketoglutarate as co-factor assessed as formation of [14C]succinate by ion-exchnage chromatographic method; design: species or system Homo sapiens
Compound,IC50 [3],other results
COc1ccc(S(=O)(=O)NC(=O)c2ccc(C(=O)O)nc2)cc1,,IC50 [1]: 1 µM
O=C(O)c1ncc2ccccc2c1O,,IC50 [2]: 0.19 µM
O=C(O)c1nnc2ccccc2c1O,,IC50 [2]: 0.02 µM
C[C@H](NC(=O)C(=O)O)C(=O)O,38.2 µM,
C[C@@H](NC(=O)C(=O)O)C(=O)O,621 µM,
CC(NC(=O)C(=O)O)C(=O)O (racemic),90.7 µM,
O=C(O)CNC(=O)C(=O)O [N-OXALYLGLYCINE],2.89 µM,
"O=C(O)c1ccc(C(=O)O)nc1 [PYRIDINE-2,5-DICARBOXYLIC ACID]",,IC50 [1]: 5.5 µM
